Patent US20090018111A1, “Novel Antimicrobial Medicament” (priority 2004, published 2009)

Tests used:
Assay in all cases: Sensitivity test (agar dilution), clinical isolate
[1] = system: P. aeruginosa 13245; assay type: cell-based, Pseudomonas aeruginosa
Protocol: (§1) In addition, the antibacterial activities were tested against strains which are comparatively less sensitive to β-lactam compounds, namely clinically isolated 13 strains of Acinetobacter calcoaceticus and Acinetobacter lwoffi, clinically isolated 11 strains of Serratia marcescens, clinically isolated 12 strains of Burkholderia cepacia, and clinically isolated 15 strains of Pseudomonas aeruginosa.
(§2) According to the standard method of Japan Chemotherapeutic Society (Chemotherapy, vol. […], p 76-79 (1981)) the test was carried out using the agar dilution method. After dissolving test samples in distilled water, agar medium containing the test samples was prepared in such a manner that the final concentration became twice serial dilution by pouring serially diluted combination drug solution or a single drug solution into agar medium. As agar medium was used Mueller Hinton Agar medium (MHA). Then, each strain was cultivated over night at 37° C. in an incubator and suspended in buffered saline solution with gelatin (BSG) in the concentration of about 10^6 CFU/ml. The suspension (about 5 μl) containing test strains was inoculated to the medium containing the test samples by Micro Planter.
(§3) Each drug was weighed, and dissolved in distilled water to give a test sample. When the drugs are used in combination, two kinds of solution containing each drug were mixed so as to be various ratio of concentration to give a mixed solution. When the sample is subjected to sensitivity test, this mixed solution was diluted by twice serial dilution method.
(§4) Furthermore, when the drug is solely used, each test sample was used as it is, and diluted by twice serial dilution method from the maximum concentration to the minimum concentration.

[2] = system: P. aeruginosa 13280; assay type: cell-based, Pseudomonas aeruginosa
Protocol: as §1, §2, §3, §4

[3] = system: P. aeruginosa 13224; assay type: cell-based, Pseudomonas aeruginosa
Protocol: as §1, §2, §3, §4

[4] = system: P. aeruginosa 13285; assay type: cell-based, Pseudomonas aeruginosa
Protocol: as §1, §2, §3, §4

[5] = system: S. marcescens 14424; assay type: cell-based, Serratia marcescens
Protocol: as §1, §2, §3, §4

[6] = system: S. marcescens 2054522; assay type: cell-based, Serratia marcescens
Protocol: as §1, §2, §3, §4

[7] = system: S. marcescens 1928513; assay type: cell-based, Serratia marcescens
Protocol: as §1, §2, §3, §4

[8] = system: S. marcescens 7155; assay type: cell-based, Serratia marcescens
Protocol: as §1, §2, §3, §4

[9] = system: S. marcescens 1944950; assay type: cell-based, Serratia marcescens
Protocol: as §1, §2, §3, §4

[10] = system: S. marcescens 14981; assay type: cell-based, Serratia marcescens
Protocol: as §1, §2, §3, §4

[11] = system: S. marcescens 14425; assay type: cell-based, Serratia marcescens
Protocol: as §1, §2, §3, §4

[12] = system: S. marcescens 14689; assay type: cell-based, Serratia marcescens
Protocol: as §1, §2, §3, §4

[13] = system: S. marcescens 14991; assay type: cell-based, Serratia marcescens
Protocol: as §1, §2, §3, §4

[14] = system: S. marcescens 7138; assay type: cell-based, Serratia marcescens
Protocol: as §1, §2, §3, §4

[15] = system: S. marcescens 2012884; assay type: cell-based, Serratia marcescens
Protocol: as §1, §2, §3, §4

Compound: C[C@H]1C=C(c2csc(SC3=C(C(=O)O)N4C(=O)[C@H]([C@@H](C)O)[C@H]4[C@H]3C)n2)CN1 [SM, (4R,5S,6S)-6-[(1R)-1-Hydroxyethyl]-4-methyl-3-({4-[(5S)-5-methyl-2,5-dihydro-1H-pyrrol-3-yl]-1,3-thiazol-2-yl}sulfanyl)-7-oxo-1-azabicyclo[3.2.0]hept-2-ene-2-carboxylic acid]
- MIC ([1]; Pseudomonas aeruginosa, 13245, Concomitant (ME:SM = 1:1)): 2 µg/mL
- MIC ([1]; Pseudomonas aeruginosa, 13245, Concomitant (ME:SM = 1:2)): 2 µg/mL
- MIC ([1]; Pseudomonas aeruginosa, 13245, Concomitant (ME:SM = 1:4)): 8 µg/mL
- MIC ([1]; Pseudomonas aeruginosa, 13245, Concomitant (ME:SM = 2:1)): 1 µg/mL
- MIC ([1]; Pseudomonas aeruginosa, 13245, alone): 16 µg/mL
- MIC ([2]; Pseudomonas aeruginosa, 13280, Concomitant (ME:SM = 1:1)): 4 µg/mL
- MIC ([2]; Pseudomonas aeruginosa, 13280, Concomitant (ME:SM = 1:2)): 8 µg/mL
- MIC ([2]; Pseudomonas aeruginosa, 13280, Concomitant (ME:SM = 1:4)): 16 µg/mL
- MIC ([2]; Pseudomonas aeruginosa, 13280, Concomitant (ME:SM = 2:1)): 4 µg/mL
- MIC ([2]; Pseudomonas aeruginosa, 13280, alone): 32 µg/mL
- MIC ([3]; Pseudomonas aeruginosa, 13224, Concomitant (ME:SM = 1:1)): 4 µg/mL
- MIC ([3]; Pseudomonas aeruginosa, 13224, Concomitant (ME:SM = 1:2)): 4 µg/mL
- MIC ([3]; Pseudomonas aeruginosa, 13224, Concomitant (ME:SM = 1:4)): 8 µg/mL
- MIC ([3]; Pseudomonas aeruginosa, 13224, Concomitant (ME:SM = 2:1)): 2 µg/mL
- MIC ([3]; Pseudomonas aeruginosa, 13224, alone): 16 µg/mL
- MIC ([4]; Pseudomonas aeruginosa, 13285, Concomitant (ME:SM = 1:1)): 4 µg/mL
- MIC ([4]; Pseudomonas aeruginosa, 13285, Concomitant (ME:SM = 1:2)): 8 µg/mL
- MIC ([4]; Pseudomonas aeruginosa, 13285, Concomitant (ME:SM = 1:4)): 16 µg/mL
- MIC ([4]; Pseudomonas aeruginosa, 13285, Concomitant (ME:SM = 2:1)): 2 µg/mL
- MIC ([4]; Pseudomonas aeruginosa, 13285, alone): 32 µg/mL
- MIC ([5]; Serratia marcescens, 14424, Concomitant (ME:SM = 1:1)): 8 µg/mL
- MIC ([5]; Serratia marcescens, 14424, Concomitant (ME:SM = 1:2)): 4 µg/mL
- MIC ([5]; Serratia marcescens, 14424, Concomitant (ME:SM = 1:4)): 8 µg/mL
- MIC ([5]; Serratia marcescens, 14424, Concomitant (ME:SM = 2:1)): 2 µg/mL
- MIC ([5]; Serratia marcescens, 14424, alone): 16 µg/mL
- MIC ([6]; Serratia marcescens, 2054522, Concomitant (ME:SM = 1:1)): 1 µg/mL
- MIC ([6]; Serratia marcescens, 2054522, Concomitant (ME:SM = 1:2)): 1 µg/mL
- MIC ([6]; Serratia marcescens, 2054522, Concomitant (ME:SM = 1:4)): 2 µg/mL
- MIC ([6]; Serratia marcescens, 2054522, Concomitant (ME:SM = 2:1)): 0.5 µg/mL
- MIC ([6]; Serratia marcescens, 2054522, alone): 8 µg/mL
- MIC ([7]; Serratia marcescens, 1928513, Concomitant (ME:SM = 1:1)): 1 µg/mL
- MIC ([7]; Serratia marcescens, 1928513, Concomitant (ME:SM = 1:2)): 1 µg/mL
- MIC ([7]; Serratia marcescens, 1928513, Concomitant (ME:SM = 1:4)): 2 µg/mL
- MIC ([7]; Serratia marcescens, 1928513, Concomitant (ME:SM = 2:1)): 0.5 µg/mL
- MIC ([7]; Serratia marcescens, 1928513, alone): 8 µg/mL
- MIC ([8]; Serratia marcescens, 7155, Concomitant (ME:SM = 1:1)): 2 µg/mL
- MIC ([8]; Serratia marcescens, 7155, Concomitant (ME:SM = 1:2)): 2 µg/mL
- MIC ([8]; Serratia marcescens, 7155, Concomitant (ME:SM = 1:4)): 2 µg/mL
- MIC ([8]; Serratia marcescens, 7155, Concomitant (ME:SM = 2:1)): 1 µg/mL
- MIC ([8]; Serratia marcescens, 7155, alone): 8 µg/mL
- MIC ([9]; Serratia marcescens, 1944950, Concomitant (ME:SM = 1:1)): 8 µg/mL
- MIC ([9]; Serratia marcescens, 1944950, Concomitant (ME:SM = 1:2)): 8 µg/mL
- MIC ([9]; Serratia marcescens, 1944950, Concomitant (ME:SM = 1:4)): 16 µg/mL
- MIC ([9]; Serratia marcescens, 1944950, Concomitant (ME:SM = 2:1)): 4 µg/mL
- MIC ([9]; Serratia marcescens, 1944950, alone): 32 µg/mL
- MIC ([10]; Serratia marcescens, 14981, Concomitant (ME:SM = 1:1)): 1 µg/mL
- MIC ([10]; Serratia marcescens, 14981, Concomitant (ME:SM = 1:2)): 1 µg/mL
- MIC ([10]; Serratia marcescens, 14981, Concomitant (ME:SM = 1:4)): 2 µg/mL
- MIC ([10]; Serratia marcescens, 14981, Concomitant (ME:SM = 2:1)): 0.5 µg/mL
- MIC ([10]; Serratia marcescens, 14981, alone): 8 µg/mL
- MIC ([11]; Serratia marcescens, 14425, Concomitant (ME:SM = 1:1)): 0.031 µg/mL
- MIC ([11]; Serratia marcescens, 14425, Concomitant (ME:SM = 1:2)): 0.063 µg/mL
- MIC ([11]; Serratia marcescens, 14425, Concomitant (ME:SM = 1:4)): 0.125 µg/mL
- MIC ([11]; Serratia marcescens, 14425, Concomitant (ME:SM = 2:1)): 0.016 µg/mL
- MIC ([11]; Serratia marcescens, 14425, alone): 2 µg/mL
- MIC ([12]; Serratia marcescens, 14689, Concomitant (ME:SM = 1:1)): 2 µg/mL
- MIC ([12]; Serratia marcescens, 14689, Concomitant (ME:SM = 1:2)): 4 µg/mL
- MIC ([12]; Serratia marcescens, 14689, Concomitant (ME:SM = 1:4)): 8 µg/mL
- MIC ([12]; Serratia marcescens, 14689, Concomitant (ME:SM = 2:1)): 2 µg/mL
- MIC ([12]; Serratia marcescens, 14689, alone): 32 µg/mL
- MIC ([13]; Serratia marcescens, 14991, Concomitant (ME:SM = 1:1)): 2 µg/mL
- MIC ([13]; Serratia marcescens, 14991, Concomitant (ME:SM = 1:2)): 2 µg/mL
- MIC ([13]; Serratia marcescens, 14991, Concomitant (ME:SM = 1:4)): 4 µg/mL
- MIC ([13]; Serratia marcescens, 14991, Concomitant (ME:SM = 2:1)): 0.5 µg/mL
- MIC ([13]; Serratia marcescens, 14991, alone): 32 µg/mL
- MIC ([14]; Serratia marcescens, 7138, Concomitant (ME:SM = 1:1)): 2 µg/mL
- MIC ([14]; Serratia marcescens, 7138, Concomitant (ME:SM = 1:2)): 2 µg/mL
- MIC ([14]; Serratia marcescens, 7138, Concomitant (ME:SM = 1:4)): 2 µg/mL
- MIC ([14]; Serratia marcescens, 7138, Concomitant (ME:SM = 2:1)): 1 µg/mL
- MIC ([14]; Serratia marcescens, 7138, alone): 8 µg/mL
- MIC ([15]; Serratia marcescens, 2012884, Concomitant (ME:SM = 1:1)): 2 µg/mL
- MIC ([15]; Serratia marcescens, 2012884, Concomitant (ME:SM = 1:2)): 4 µg/mL
- MIC ([15]; Serratia marcescens, 2012884, Concomitant (ME:SM = 1:4)): 4 µg/mL
- MIC ([15]; Serratia marcescens, 2012884, Concomitant (ME:SM = 2:1)): 2 µg/mL
- MIC ([15]; Serratia marcescens, 2012884, alone): 8 µg/mL
